Reference: patent US3984555A, “Therapeutic piperazinylalkyl-quinazolone-(4)-derivatives” (Byk Gulden Lomberg Chemische Fabrik Gesellschaft mit …, priority 1970, dated 1976)

Assays:
[1] = German Published patent application No. 1,231,705 and 1,249,281; cited from earlier work
[2] = test system: hypertensive effect of 1-adrenalin; test: 50% inhibition of hypertensive effect of 0.001 mg/kg i/v 1-adrenalin on the despinalised rat (Table II); type: in vivo; conditions: iv, read-out: 50% inhibition of hypertensive effect after i/v dose of Adrenalin by mg/kg i/v
Procedure: (§1) also on the hypertensive effect of 0.001 mg/kg i/v 1-adrenalin and
(§2) blood pressure and the cardiac frequency of the narcosed rate and also on
(§3) the hypertensive effect of 0.001 mg/kg i.v. 1-adrenaline and noradrenaline
(§4) on the despinalised rat. The mean lethal doses for the mouse are also

[3] = test system: blood pressure and cardiac frequency of the narcotised rat; test: Influence on the blood pressure and the cardiac frequency of the narcotised rat (Table II); type: in vivo; conditions: iv, i/v, read-out: Blood pressure lowered by 30% by mg/kg i/v
Source text: Influence on the blood pressure and the cardiac frequency of the
blood pressure and the cardiac frequency of the narcosed rate and also on […]

[4] = test system: duration of sleep of mice under hexobarbital; test: Prolongation of hexobarbital sleep in mice (Table III, d); type: in vivo; conditions: Mus musculus, ip; 15 mg/kg i.p.; 75 mg/kg hexobarbital; read-out: d % prolongation of sleep under hexebarbital by 15 mg/kg i.p.
Procedure: d = percentage prolongation of the duration of sleep of mice which had received 75 mg/kg. of hexobarbital, reckoned on the duration of the sleep of control animals.

[5] = test system: mouse; test: Inhibition of spontaneous motility, sedation, muscular relaxation, loss of grip on horizontal wire mesh in mice (Table III, b); type: in vivo; conditions: po, dose at which an average of 50% of the mice display symptoms, read-out: b SD50 mg/kg oral
[6] = test system: systolic and diastolic blood pressure; test: Orientating clinical test in patients (FIGS. 1 and 2); type: in vivo, 7 female and 1 male patient
[7] = test system: carotid sinus reflex; test: Inhibition of the carotid sinus reflex of the narcotised cat (Table I); type: in vivo; design: unit not given here; conditions: for Inhibition of the carotid sinus reflex by 30% by: dose for 30% inhibition; for Inhibition of the carotid sinus reflex by 50% by: dose for 50% inhibition
Source text: (§5) Influence on the blood pressure and cardiac frequency and also
(§6) on the carotid sinus reflex of the narcotised cat
(§7) Table I provides a general summary of the influence of different piperazinylquinazolones on the blood pressure, the cardiac frequency and the carotid sinus reflex of the narcotised cat.
The inhibition of the carotid sinus reflex brought about by the piperazinyl quinazolones occurs at lower doses than the spontaneous lowering of the blood pressure in the cat.

[8] = test system: running activity of mice pre-treated with α-amphetamine sulphate; test: Inhibition of running activity of mice pre-treated with α-amphetamine sulphate (Table III, c); type: in vivo; conditions: Mus musculus, ip, 3 h, 5 mg/kg α-amphetamine sulphate, 180 minutes; for inhibition in vivo at 25 mg/kg: 25mg/kg i/p, read-out: c % inhibition of motility in the treadwheel by 25mg/kg i/p
[9] = test system: mouse; test: Mice falling from a rotating bar (Table III, a); type: in vivo; conditions: ip, read-out: a PD50 mg/kg i.p.
Source text: The central damping actions of the piperazinyl quinazolones on the mouse can be seen from Table III.
a = dose at which 50% of the mice fall from a rotating bar;

[10] = test system: defence reaction after the thermal stimulation of the tail of the mouse; test: Analgesic effect on the mouse: delay in defence reaction after thermal stimulation of the tail (Table IV); type: in vivo; conditions: po; mouse; per os; 25% delay; read-out: Delay in the defence reaction after the thermal stimulation of the tail of the mouse by 25% by mg/kg per os
Source text: From Table IV below one can see the analgesic action, measured in terms of the delayed reaction during the thermal irritation of the mouse tail. The analgesically effective doses are also below those which reduce the motor behaviour, that is to say the normal movement processes (cf. Table III).
Analgesic effect on the mouse
Delay in the defence reaction after
the thermal stimulation of the tail

[11] = LD50 (mean lethal dose) on the mouse (Table II); conditions: in vivo
Source text: as §4

[12] = test system: blood pressure and cardiac frequency of the narcotised cat; test: Influence on the blood pressure and cardiac frequency of the narcotised cat (Table I); type: in vivo; design: unit not given here; conditions: for Blood pressure lowered by 30% by: dose lowering blood pressure by 30%; for Blood pressure lowered by 50% by: dose lowering blood pressure by 50%
Source text: as §5, §6, §7

[13] = test system: hypertensive effect of noradrenalin; test: 50% inhibition of hypertensive effect of 0.001 mg/kg i/v noradrenalin on the despinalised rat (Table II); type: in vivo; conditions: iv, read-out: 50% inhibition of hypertensive effect after i/v dose of Noradrenalin by mg/kg i/v
Procedure: as §1, §2, §3, §4

[14] = 10 and 20 mg per os, 7 female and 1 male patient

Row | SMILES | ED50 [2] [mg/kg] | ED30 [3] [mg/kg] | change in vivo at 15 mg/kg [4] [%] | ED50 [5] [mg/kg] | Inhibition of the carotid sinus reflex by 30% by [7] | Inhibition of the carotid sinus reflex by 50% by [7] | inhibition in vivo at 25 mg/kg [8] [%] | ED50 [9] [mg/kg] | ED25 [10] [mg/kg] | LD50 [11] [mg/kg] | Blood pressure lowered by 30% by [12] | Blood pressure lowered by 50% by [12] | ED50 [13] [mg/kg] | further results
1 | CCOc1ccc2nc(CN(C)C)n(C)c(=O)c2c1 [2-dimethylaminomethyl-3-methyl-6-ethoxyquinazolone-4] | – | – | – | – | – | – | – | – | – | – | – | – | – | analgesic action compared with 4-dimethylamino-1-phenyl-2,3-dimethylpyrazolone-5 [1]: comparable
2 | COc1cc2nc(CCN3CCN(c4ccccc4OC)CC3)[nH]c(=O)c2cc1OC [Example 6, 2-(2-(1-(2-methoxyphenyl)piperazinyl-4)ethyl)-6,7-dimethoxy-4(3H)-quinazolone] | 0.036 | 0.35 | 79 | 40 | 0.12 | 0.35 | 28 | 34 | 1.5 | 600 | 0.07 | 0.61 | > 2.5 | effect on the sensorium [6, 14]: no effect on the sensorium; lowering of the diastolic blood pressure [6, 14]: statistically significant lowering; lowering of the systolic blood pressure [6, 14]: statistically significant lowering; tolerance [6, 14]: very good tolerance; difference in the action of 10 and 20 mg. ([6]; 10 vs 20 mg, FIGS. 1 and 2): statistically confirmed; dose dependence of the lowering of the blood pressure ([6]; mean initial blood pressure 171.9 mm Hg systolic, 95.3 mm Hg diastolic, FIGS. 1 and 2): dependent upon the dose; inhibition in vivo at 12 mg/kg ([8]; 12mg/kg i/p, read-out: c % inhibition of motility in the treadwheel by 12mg/kg i/p): 19%
3 | COc1cc2nc(CCN3CCN(c4ccccc4F)CC3)[nH]c(=O)c2cc1OC [Example 14, 2-(2-(1-(2-fluorophenyl)piperazinyl-4)ethyl)-6,7-dimethoxy-4(3H)-quinazolone] | 0.058 | 0.18 | 68 | 180 | 0.04 | 0.15 | 1 | 61 | 2 | 150 | 0.9 | > 1.6 | > 2.5 | –
